The text below walks through data of patent publication US20230091225A1, “Bifunctional chimeric heterocyclic compounds for targeted degradation of androgen receptors and use thereof” (HINOVA PHARMACEUTICALS INC., priority 2019, published 2023).

A value given as a limit tells only on which side of the number the result lay.

One assay addresses T1, androgen receptor (AR) (Homo sapiens, UniProt P10275).
T1 sequence (P10275 1-920): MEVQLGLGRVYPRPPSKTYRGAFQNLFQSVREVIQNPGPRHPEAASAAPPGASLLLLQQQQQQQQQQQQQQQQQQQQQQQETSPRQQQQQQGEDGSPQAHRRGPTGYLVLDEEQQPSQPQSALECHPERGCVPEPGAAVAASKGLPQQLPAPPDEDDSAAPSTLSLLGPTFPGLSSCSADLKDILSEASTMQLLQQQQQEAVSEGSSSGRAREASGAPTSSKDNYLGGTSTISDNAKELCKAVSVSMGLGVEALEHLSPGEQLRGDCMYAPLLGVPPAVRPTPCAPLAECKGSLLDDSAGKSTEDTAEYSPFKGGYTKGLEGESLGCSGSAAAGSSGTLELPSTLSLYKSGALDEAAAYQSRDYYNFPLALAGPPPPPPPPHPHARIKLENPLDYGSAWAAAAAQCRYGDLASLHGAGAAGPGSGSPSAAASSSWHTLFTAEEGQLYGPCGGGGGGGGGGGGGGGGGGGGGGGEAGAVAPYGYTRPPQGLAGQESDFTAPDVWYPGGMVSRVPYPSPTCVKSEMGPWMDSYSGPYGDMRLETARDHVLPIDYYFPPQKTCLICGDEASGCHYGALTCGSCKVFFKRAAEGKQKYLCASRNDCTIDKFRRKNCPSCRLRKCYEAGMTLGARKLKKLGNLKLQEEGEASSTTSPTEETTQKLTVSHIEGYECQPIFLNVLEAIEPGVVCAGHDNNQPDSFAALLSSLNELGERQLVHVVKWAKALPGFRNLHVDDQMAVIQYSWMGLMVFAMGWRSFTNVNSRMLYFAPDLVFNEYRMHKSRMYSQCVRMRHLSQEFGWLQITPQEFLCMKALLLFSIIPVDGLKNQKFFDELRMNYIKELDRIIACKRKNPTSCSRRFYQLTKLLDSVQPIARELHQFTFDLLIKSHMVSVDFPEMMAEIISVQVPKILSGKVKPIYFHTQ
The assay can be described thus: Degradation of androgen receptor (AR) protein in VCaP cells by Western blot. It counts as cell-based. To be noted: FIG. 1. The procedure: Determination of the Degradation Activity of the Compound on Androgen Receptor (AR) Protein by Western Blot
1) VCaP cells were subcultured in cell culture media, and then the cells in good growth condition were seeded in a 12-well plate at 1 ml/well (5×10^5 cells/well), and cultured overnight in a 37° C., 5% CO2 cell incubator. 2) The test compound was prepared into a 10 mM stock solution with dimethyl sulfoxide (DMSO). Prior to use, the solution was diluted 3 times with DMSO. […] of the diluted compound solution was added to the cell culture well (ensuring that the DMSO concentration in the culture system was 0.1%), and two wells were set for each concentration. The plate was gently shaken to mix. In addition, the experiment included negative control wells (containing equal amount of DMSO) and positive control wells. 3) After culturing 16 h. the cells were lysed with RIPA cell lysate, and the protein was extracted. The protein concentration was measured with BCA kit. 5-fold concentrated protein loading buffer was added, and after heated at 100° C. for 5 min. the sample was stored at −20° C. 4) for each well, 30 μg of protein was loaded on polyacrylamide gel for electrophoresis. 5) The protein was transferred from polyacrylamide gel to PVDF membrane, and then 5% skim milk was added to close for 1 h at room temperature. The first antibody (Androgen Receptor (D6F11) XP Rabbit mAb and Anti-β-Actin Rabbit mAb) was added and incubated overnight at 4° C. The membrane was washed with TBST solution three times. 10 min for each time. The secondary antibody (horseradish peroxidase labeled goat […]) was added and incubated at room temperature for 2 h, and then the membrane was washed with TBST solution three times. 10 min for each time.
Finally, ECL chemiluminescence solution was added, and then photos were taken with automatic chemiluminescence instrument to collect pictures for analysis.
For the compound `N#Cc1ccc(O[C@H]2CC[C@H](NC(=O)c3cnc(N4CCN(C[C@@H]5[C@H]6CN(c7cc8c(cc7F)C(=O)N(C7CCC(=O)NC7=O)C8=O)C[C@@H]56)CC4)cn3)CC2)cc1Cl` (stereo partly drawn) [Compound 99], the “degradation activity on AR at different concentrations” value was “concentration-dependent manner”.

The assay is the same for the next values; noted with them: percentage of degraded AR at 100 nM, VCaP cells, 16 h.
The term inhibition denotes the share of the control response that was lost under treatment. Read a high inhibition as strong suppression. Regarding `N#Cc1ccc(O[C@H]2CC[C@H](NC(=O)c3ccc(N4CCC(CN5CCCN(c6ccc7c(c6)C(=O)N(C6CCC(=O)NC6=O)C7=O)CC5)CC4)cc3)CC2)cc1Cl` (stereo partly drawn) [Compound 58, N-((1R,4R)-4-(3-chloro-4-cyanophenoxy)cyclohexyl)-4-(4-((4-(2-(2,6-dioxopiperidin-3-yl)-1,3-dioxoisoindolin-5-yl)-1,4-diazepan-1-yl)methyl)piperidin-1-yl)benzamide], the inhibition at 0.1 µM lay within 25 to 49%. The same measure, in the same setting: the same measure for `N#Cc1ccc(O[C@H]2CC[C@H](NC(=O)c3ccc(N4CCC(N5CC6(CCN(c7cc8c(cc7F)C(=O)N(C7CCC(=O)NC7=O)C8=O)CC6)C5)CC4)nn3)CC2)cc1Cl` (stereo partly drawn) [Compound 61, N-((1R,4R)-4-(3-chloro-4-cyanophenoxy)cyclohexyl)-6-(4-(7-(2-(2,6-dioxopiperidin-3-yl)-6-fluoro-1,3-dioxoisoindolin-5-yl)-2,7-diazaspiro[3.5]nonyl-2-yl)piperidin-1-yl)pyridazine-3-carboxamide]: greater than 80%; for `N#Cc1ccc(O[C@H]2CC[C@H](NC(=O)c3ccc(N4CCC(N5CC6CN(c7ccc8c(c7)C(=O)N(C7CCC(=O)NC7=O)C8=O)CC6C5)CC4)nn3)CC2)cc1Cl` (stereo partly drawn) [Compound 62, N-((1r,4r)-4-(3-chloro-4-cyanophenoxy)cyclohexyl)-6-(4-(5-(2-(2,6-dioxopiperidin-3-yl)-1,3-dioxoisoindolin-5-yl)hexahydropyrrolo[3,4-c]pyrrol-2(1H)-yl)piperidin-1-yl)pyridazine-3-carboxamide]: 50 to 79%. `N#Cc1ccc(O[C@H]2CC[C@H](NC(=O)c3cnc(N4CCC(N5CC6CN(c7ccc8c(c7)C(=O)N(C7CCC(=O)NC7=O)C8=O)CC6C5)CC4)cn3)CC2)cc1Cl` (stereo partly drawn) [Compound 63, N-((1r,4r)-4-(3-chloro-4-cyanophenoxy)cyclohexyl)-5-(4-(5-(2-(2,6-dioxopiperidin-3-yl)-1,3-dioxoisoindolin-5-yl)hexahydropyrrolo[3,4-c]pyrrol-2(1H)-yl)piperidin-1-yl)pyrazine-2-carboxamide]: the inhibition at 0.1 µM lay within 50 to 79%. Still for that read-out and setting: the same measure for `N#Cc1ccc(O[C@H]2CC[C@H](NC(=O)c3cnc(N4CCC(N5CC6CN(c7cc8c(cc7F)C(=O)N(C7CCC(=O)NC7=O)C8=O)CC6C5)CC4)cn3)CC2)cc1Cl` (stereo partly drawn) [Compound 64, N-((1r,4r)-4-(3-chloro-4-cyanophenoxy)cyclohexyl)-5-(4-(5-(2-(2,6-dioxopiperidin-3-yl)-6-fluoro-1,3-dioxoisoindolin-5-yl)hexahydropyrrolo[3,4-c]pyrrol-2(1H)-yl)piperidin-1-yl)pyrazine-2-carboxamide]: 50 to 79%; for `N#Cc1ccc(O[C@H]2CC[C@H](NC(=O)c3ccc(N4CC5CN(C6CCN(c7cc8c(cc7F)C(=O)N(C7CCC(=O)NC7=O)C8=O)CC6)CC5C4)nn3)CC2)cc1Cl` (stereo partly drawn) [Compound 67]: less than 25%; for `N#Cc1ccc(O[C@H]2CC[C@H](NC(=O)c3cnc(N4CC5CN(C6CCN(c7ccc8c(c7)C(=O)N(C7CCC(=O)NC7=O)C8=O)CC6)CC5C4)cn3)CC2)cc1Cl` (stereo partly drawn) [Compound 69, N-((1r,4r)-4-(3-chloro-4-cyanophenoxy)cyclohexyl)-5-(5-(1-(2-(2,6-dioxopiperidin-3-yl)-1,3-dioxoisoindolin-5-yl)piperidine-4-yl)hexahydropyrrolo[3,4-c]pyrrol-2(1H)-yl)pyrazine-2-carboxamide]: less than 25%.

For `N#Cc1ccc(O[C@H]2CC[C@H](NC(=O)c3ccc(N4CCC5(CC4)CN(C4CCN(c6cc7c(cc6F)C(=O)N(C6CCC(=O)NC6=O)C7=O)CC4)C5)nn3)CC2)cc1Cl` (stereo partly drawn) [Compound 71], the inhibition at 0.1 µM is greater than 80%. On the same count and under the same terms, the result for `CC1(C)[C@H](NC(=O)c2ccc(N3CC4CN(C5CCN(c6cc7c(cc6F)C(=O)N(C6CCC(=O)NC6=O)C7=O)CC5)CC4C3)nn2)C(C)(C)[C@H]1Oc1ccc(C#N)c(Cl)c1` (stereo partly drawn) [Compound 72, N-((1r,3r)-3-(3-chloro-4-cyanophenoxy)-2,2,4,4-tetramethylcyclobutyl)-6-(5-(1-(2-(2,6-dioxopiperidin-3-yl)-6-fluoro-1,3-dioxoisoindolin-5-yl)piperidine-4-yl)hexahydropyrrolo[3,4-c]pyrrol-2(1H)-yl)pyridazine-3-formamide] reads 25 to 49%. For the compound `N#Cc1ccc(OC2CCC(NC(=O)c3cnc(N4CCC(NC5CCN(c6cc7c(cc6F)C(=O)N(C6CCC(=O)NC6=O)C7=O)CC5)CC4)cn3)CC2)cc1Cl` (stereo not drawn) [Compound 73, N-((1r,4r)-4-(3-chloro-4-cyanophenoxy)cyclohexyl)-5-(4-((1-(2,6-dioxopiperidin-3-yl-6-fluoro-1,3-dioxoisoindolin-5-yl)piperidine-4-yl)amino)piperidin-1-yl)pyrazine-2-carboxamide], the “% degradation” value was “A (>80%)”.

On to `N#Cc1ccc(O[C@H]2CC[C@H](NC(=O)c3ccc(N4CCC5(CC4)CN(C4CCN(c6ccc7c(c6)C(=O)N(C6CCC(=O)NC6=O)C7=O)CC4)C5)nn3)CC2)cc1Cl` (stereo partly drawn) [Compound 74], for which the inhibition at 0.1 µM is greater than 80%. On the same count and under the same terms, the same measure for `N#Cc1ccc(O[C@H]2CC[C@H](NC(=O)c3ccc(N4CC5CN(C[C@@H]6[C@H]7CN(c8ccc9c(c8)C(=O)N(C8CCC(=O)NC8=O)C9=O)C[C@@H]67)CC5C4)nn3)CC2)cc1Cl` (stereo partly drawn) [Compound 100]: 50 to 79%; for `CC1(C)[C@H](NC(=O)c2ccc(N3CCN(C[C@@H]4[C@H]5CN(c6cc7c(cc6F)C(=O)N(C6CCC(=O)NC6=O)C7=O)C[C@@H]45)CC3)nn2)C(C)(C)[C@H]1Oc1ccc(C#N)c(Cl)c1` (stereo partly drawn) [Compound 101]: 25 to 49%; for `N#Cc1ccc(O[C@H]2CC[C@H](NC(=O)c3ccc(N4CCN(C[C@@H]5[C@H]6CN(c7ccc8c(c7)C(=O)N(C7CCC(=O)NC7=O)C8=O)C[C@@H]56)CC4)nn3)CC2)cc1Cl` (stereo partly drawn) [Compound 102]: 50 to 79%. With `N#Cc1ccc(O[C@H]2CC[C@H](NC(=O)c3ccc(N4CCC(N5CC6(CCN(c7cc8c(cc7F)C(=O)N(C7CCC(=O)NC7=O)C8=O)C6)C5)CC4)nn3)CC2)cc1Cl` (stereo partly drawn) [Compound 103, N-((1r,4r)-4-(3-chloro-4-cyanophenoxy)cyclohexyl)-6-(4-(6-(2-(2,6-dioxopiperidin-3-yl)-6-fluoro-1,3-dioxoisoindolin-5-yl)-2,6-diazaspiro[3.4]octane-2-yl)piperidin-1-yl)pyridazine-3-formamide], the inhibition at 0.1 µM is greater than 80%.

In a further assay the target is T1, androgen receptor (AR). Nature of the assay: Degradation of androgen receptor (AR) protein in VCaP cells by ELISA. It counts as cell-based.
Conditions: not given
(ELISA stands for enzyme-linked immunosorbent assay.)
With “N-((1r,4r)-4-(3-chloro-4-cyanophenoxy)cyclohexyl)-6-(4-((6-(2-(2,6-dioxopiperidin-3-yl)-6-fluoro-1,3-dioxoisoindolin-5-yl)-2,6-diazaspiro[3.3]heptan-2-yl)methyl)piperidin-1-yl)pyrazine-2-amide [Compound 123]”, the “Dmax (%)” value was “++++ (key: A: >80%; B: 79%-50%; C: 49%-25%; D: <25%)”.

Staying with this assay, now noted: read-out: DC50.
The DC50 is the concentration giving 50% degradation. On to “N-((1r,4r)-4-(3-chloro-4-cyanophenoxy)cyclohexyl)-6-(4-((6-(2-(2,6-dioxopiperidin-3-yl)-6-fluoro-1,3-dioxoisoindolin-5-yl)-2,6-diazaspiro[3.3]heptan-2-yl)methyl)piperidin-1-yl)pyrazine-2-amide [Compound 123]”, for which the DC50 is less than 10 nM.
